Source: patent US20080139668A1, “PHARMACEUTICAL COMPOSITION FOR OBOVATOL FOR THE PREVENTION AND TREATMENT OF RESTENOSIS” (Korea Research Institute of Bioscience and Biotechnology, priority 2006, published 2008)

Experiments:
[1] = test system: arterial smooth muscle cells; experiment: Inhibition of DNA synthesis ([3H] thymidine) in PDGF-treated arterial smooth muscle cells; assay type: cell-based, rat; conditions: obovatol 1, 3, 5 μM, FIG. 10
Description: Arterial smooth muscle cells were cultured in the same manner as in Example 4, with the exception that the cells were cultured for 20 hours after treatment with platelet-derived growth factor, and then cultured for 4 hours in the presence of 1 μl of [3H] thymidine. The cultured cells were washed with PBS and incubated with 500 μl of TCA (trichloroacetic acid) for 30 min. After the removal of TCA, the cells were washed with a mixture of 1:1 ethanol:ether (v/v) and disrupted with 500 μl of NaOH. The cell lysate was mixed with 5 ml of a scintillation cocktail and measured for radioactivity to analyze relative amounts of newly synthesized DNA. FIG. 10 is a graph in which amounts of newly synthesized DNA in PDGF-treated arterial smooth muscle cells are plotted against concentrations of obovatol.

[2] = test system: arterial smooth muscle cells; experiment: Cell cycle of arterial smooth muscle cells; assay type: cell-based
injured carotid artery [3] = experiment: Carotid artery angiography in the rat carotid artery balloon injury model; assay type: in vivo; conditions: 100 μg obovatol in 100 μL pluronic gel, topical to injured carotid artery; 14 days after arteriotomy; mean±S.E.; control 0.63±0.12; p<0.01
Description: A 4F vascular cannula (Cook, USA) was inserted into the ventral aorta and the catheter was advanced toward the head to a locus as close as possible to a branch between the common carotid arteryand the transverse aorta. After the injection of a contrast media (Visipaque™, Amersham Health, Cork, Ireland), mean luminal diameters (MLD) were measured using computerized coronary angiography (DCI Videodensitometry, Phillips, Netherlands)(See FIG. 1˜FIG. 8).
They were measured for the inner diameter of the carotid artery using a 5F coronary catheter, and the mean value thereof was used as a control.

[4] = test system: arterial smooth muscle cells; experiment: Inhibition of PDGF-induced arterial smooth muscle cell proliferation (cell count); assay type: cell-based, rat; conditions: obovatol 1, 3, 5 μM; 50 ng/ml PDGF-BB; 24, 48, 72 hours; FIG. 9
Description: Obovatol was examined for inhibitory activity against the proliferation of arterial smooth muscle cells in rats. Arterial smooth muscle cells were plated at a density of 3.0×10^4 cells/well onto 12-well plates containing a DMEM medium supplemented with 0.5% (V/V) fetal bovine serum, and incubated for 24 hours After the addition of obovatol (1, 3, and 5 μM) to the plates, the cells were incubated for 24 hours. Treatment with 50 ng/ml of platelet-derived growth factor (PDGF-BB, Sigma Chem. Co., USA) was followed by incubation for 24, 48, and 72 hours. Thereafter, the cells were trypsinized and counted using a cell counter.

SPF Sprague-Dawley rats = experiment: Acute toxicity assay in rats; assay type: in vivo, rat; conditions: abdominal injection 1000, 100, 10 mg/kg
Description: (§1) ICR mice (weighing 25±5 g) and SPF Sprague-Dawley rats (weighing 235±10 g) were separately divided into four groups of three and abdominally injected with the obovatol prepared in Example 2 at doses of 1000 mg/kg, 100 mg/kg, and 10 mg/kg and monitored for toxicity over 24 hours.

injured carotid artery [5] = test system: injured carotid artery
Description: For the topical application of obovatol in vivo, pluronic gel was employed. F-127 pluronic gel (Sigma Chemical Company, Germany) was dissolved in cold, deionized water to give 40% gel one day before the experiment, and was allowed to stand at 4° C. for 12 hours to dissolve powdered F-127 pluronic gel completely. On the day of the experiment, obovatol was dissolved in a concentration of 10 μg/μL in 100% ethanol and 10 μL of the obovatol solution (10 μg/μL) was mixed with 90 μL of the 40% F-127 pluronic gel to afford 100 μL of obovatol-pluronic gel, comprising 100 μg of obovatol. A control was prepared in the same manner except that no obovatol was contained therein.
After rats were anaesthetized by abdominal injection with ketamine (50 mg/kg) and xylazine (6.7 mg/kg) and incised to expose the common carotid artery, the external carotid artery and the internal carotid artery were exteriorized through a ventral right line neck incision. While blood flow was temporarily halted by occluding the artery with microvascular clamps (Acland, S&T, Switzerland) at the proximal region of the common carotid artery and the distal region of the internal carotid artery, arteriotomy was performed on the external carotid artery. A 2F Fogarty arterial embolectomy catheter (Baxter Healthcare Corporation, USA) was inserted into the lumen of the right common carotid artery through the incised region and the balloon was inflated to a size larger than the diameter of the common carotid artery so as to generate slight arterial wall resistance. The catheter was advanced a predetermined distance and then withdrawn. This procedure was repeated a total of three times to induce endothelial denudation, after which the catheter (the balloon?) was removed from the arterial lumen. Then, the microvascular clamps were removed to allow blood to flow through the artery. Secretions and blood were completely removed from the exterior of the carotid artery before the obovatol-pluronic gel or the obovatol-lacking pluronic gel were topically applied in an amount of 100 μL to upper loci of the carotid artery, followed by ligation of the artery with a suture. Two weeks after the arteriotomy, a carotid artery angiography was conducted and a carotid artery sample was taken and analyzed histopathologically.

ICR mice = experiment: Acute toxicity assay in mice; assay type: in vivo, mouse; conditions: abdominal injection 1000, 100, 10 mg/kg
Description: as §1

[6] = 100 μg obovatol in pluronic gel, topical, two weeks after injury, control 0.18 ± 0.06, P < 0.05

obovatol
DNA synthesis ([3H] thymidine incorporation) [1]: decreases with the increasing concentration of obovatol
proportion of cells in resting state (G0/G1) of the cell cycle [2]: increased the proportion of cells in a resting state (G0/G1)
inner diameter of carotid artery (mean luminal diameter) (injured carotid artery [3]): 0.78±0.06 mm
growth of arterial smooth muscle cells (cell count) [4]: inhibitory of the growth of arterial smooth muscle cells
abnormality (body weight, food intake, etc.) (SPF Sprague-Dawley rats; 24 hours): no abnormality observed in any of the animals
death (SPF Sprague-Dawley rats; monitored 24 hours): Death was observed in none of the four groups
Medial Area (mm^2) (injured carotid artery [5]; 100 μg obovatol in pluronic gel, topical, two weeks after injury, control 0.12 ± 0.02, P > 0.05): 0.11 ± 0.10 mm^2
Intimal Area (mm^2) (injured carotid artery [5]; [6]): 0.13 ± 0.03 mm^2
Intimal Thickness (mm) (injured carotid artery [5]; [6]): 0.23 ± 0.02 mm
Intimal-Medial Area Ratio (injured carotid artery [5]; 100 μg obovatol in pluronic gel, topical, two weeks after injury, control 1.54 ± 0.48, P < 0.05): 1.12 ± 0.23
Stenosis (%) (injured carotid artery [5]; 100 μg obovatol in pluronic gel, topical, two weeks after injury, control 50.10 ± 13.25, P < 0.01): 34.94 ± 7.23%
cytotoxicity inferred from similar medial thickness to control (injured carotid artery [5]; rat, in vivo): no cytotoxicity
abnormality (body weight, food intake, etc.) (ICR mice; 24 hours): no abnormality observed in any of the animals
death (ICR mice; monitored 24 hours): Death was observed in none of the four groups
